Test results from patent US6469013B2, “Therapeutic compounds” (Parker Hughes Institute, priority 1998, dated 2002).

Columns and labels:
skh-1 mice [1] = experiment: Chronic UVB-induced skin tumorigenesis; assay type: in vivo, mouse
Description: Female, 6-7 weeks old, hairless albino mice (skh-1) were purchased from Charles River Laboratories (Wilmington, Mass.) and were housed in a controlled environment (12-h light/12-h dark photo period, 22±1° C., 60±10% relative humidity), which is fully accredited by the USDA (United States Department of Agriculture). Animals were caged in groups of five in a pathogen free environment in accordance with the rules and regulations of U.S. Animal Welfare Act, and National Institutes of Health (NIH). All mice were housed in microisolator cages (Lab Products, Inc., N.J.) containing autoclaved bedding. The mice were allowed free access to autoclaved pellet food and tap water throughout the experiments. Animal care and the experimental procedures were carried out in agreement with institutional guidelines.
Ultraviolet lamps (8-FSX24T12/HO/UVB) that emit light predominantly in the UVB range (280-320 nm) were obtained from National Biological Corporation, Twinsburg, Ohio. The irradiance of the UVB lamps was determined before each irradiation, using a UVB meter (model—500C obtained from National Biological Corporation, Twinsburg, Ohio). For exposure to UV light, three mice were placed in an open 28 cm×10 cm plastic box that was divided in three compartments (one mouse per compartment). The plastic box was placed in the center, under the bank of UVB light, and the mice were irradiated with 35 mj/cm^2 dose of UVB. The exposure time for a 35 mj/cm ^2 dose of UVB varied from 30-34 s. The distance between UVB lamps and the surface receiving irradiation was 20 cm.
The mice were treated topically with a single application of Compound 6 (1.0 mg/cm^2, dissolved in DMSO) over a 2 cm^2 area on the dorsal surface before each UVB exposure. After 15 min. following Compound 6 application the mice were irradiated with UVB (35 mj/cm). UVB exposure of mice was performed three times a week for a total of 20 weeks. Control mice were treated with vehicle prior to UVB light exposure.
The skin thickness of mice, and papillary skin lesions greater than 1 mm in diameter were measured and recorded twice every week and the average of the two measurements was used in the calculations. Skin thickness, lesion number and lesion diameter measurements were limited only to the 2 cm^2 area on the dorsal surface of mice that was being treated either with compound 6 or vehicle. Lesion volume were calculated using the formula: […]
At the end of the study, 5-19 lesions from each group were randomly biopsied, and fixed in 10% buffered formalin. Formalin-fixed specimens were embedded in paraffin blocks, sectioned at 4 μm thickness, and stained in haematoxylin-eosin. The pathological evaluation of skin sections was performed by a Certified Veterinary Pathologist who was unaware of the identity of specimens.
The pathological classification of tumors was as follows: 1) Cutaneous papilloma: a tumor papillomatous growth of acanthotic epidermis without invasive growth of tumor cells into the dermis. […] 2) Actinic keratosis: a hyperplastic, orthokeratotic, mildly to moderately acanthotic epithelium. 3) Florid actinic keratosis: actinic keratosis with mild to moderately acanthotic ridges extending into the superficial dermis, resembling superficially invasive squamous cell carcinoma. 4) Keratoacanthoma: a papillary growth with a central keratin filled crater surrounded by hyperplastic, acanthotic stratified squamous epithelium. The leading edge of the tumor pushes into the underlying dermis. 5) Squamous cell carcinoma (SCC): a tumor with atypical cell nests invading into superficial and mid dermis.

skh-1 mice [2] = experiment: Acute UVB skin inflammation: skinfold thickness, morphology, histology; assay type: in vivo, mouse; settings: 48 h post UVB; UVB vehicle 3-5, normal 2-3
From the text: A bank of 8-FSX24T12/HO/UVB lamps (National Biological Corporation, Twinsburg, Ohio) that emits light predominantly in the UVB range, 280-320 nm was used to irradiate mice and cell cultures. The irradiance of UVB lamps was always measured before irradiation using a UVB meter (model—500C obtained from National Biological Corporation, Twinsburg, Ohio). The dose of UVB light used to irradiate cultures was 25 mj/cm^2. Anesthetized mice received UVB radiations to a 2.0 cm^2 area on their dorsal surface. This area was painted either with the test compound (1.5 mg/cm^2) in drug receiving mice, or with vehicle in control mice fifteen minutes before irradiation. The distance between UVB lamps and surface receiving irradiation was 20 cm. The final radiation dose received by skh-1 hairless mice was 250 mj/cm^2 which is approximately seven times higher than the minimal erythema dose (MED) (17) in these mice. […]
Morphological appearance of the UVB irradiated skin was monitored visually and compared with the control mice skin. Skinfold thickness of the dorsal surface of the mice was recorded before, and everyday after UVB exposure for five days with a digital thickness gauge (Mitutoyo, So. Plainfield, N.J.) which measures thickness in 0-10 mm range with an accuracy of 0.015 mm. […]

[3] = group C, 1 mg/cm^2 topical, 20 weeks
[4] = group C, 1 mg/cm^2 topical, 20 weeks, mean ± SEM

In the case of `COc1cc2ncnc(Nc3ccc(O)cc3)c2cc1OC` [WHI-P131, 4-(4′-hydroxyl-phenyl)-amino-6,7-dimethoxyquinazoline], the “inhibition of occurrence of SCC/Florid actinic keratosis” value (skh-1 mice [1]; group C vs group B, 20 weeks) is reported as “about 23%”, the No. of lesions/mouse (skh-1 mice [1]; group C, 1 mg/cm^2 topical before each UVB 35 mj/cm^2, 20 weeks, mean ± SEM) is reported as 1.6 ± 0.4 and the “Percentage of mice with Actinic keratosis” value (skh-1 mice [1]; [3]) is reported as 53 Percentage. For the same compound, the “Percentage of mice with Keratoacanthomas” value (skh-1 mice [1]; [3]) was 0 Percentage, the “Percentage of mice with Papilloma” value (skh-1 mice [1]; [3]) was 7 Percentage and the “Percentage of mice with SCC/Florid actinic keratosis” value (skh-1 mice [1]; [3]) was 57 Percentage. For the same compound, the “Avg. Vol/lesion” value (skh-1 mice [1]; [4]) was 1.9 ± 0.5, the Skin lesion volume/mouse (skh-1 mice [1]; [4]) was 3.2 ± 0.9 and the “onset of lesions (first lesion observed after)” value (skh-1 mice [1]; weeks of UVB-irradiation, vehicle group around 10 weeks) was 14 weeks. The “cell layers of epidermis” value (skh-1 mice [2]) was 1-2 cell layers.
